Test results reported in ChEMBL document CHEMBL2380192, “Structure-activity relationship of potent antimicrobial peptide analogs of Ixosin-B amide” (Bioorg Med Chem Lett, 2013).
In brackets after ≈: the same amount, converted by molar mass. Activity calls are given as the source filed them. The rule behind the calls is not given here.

Columns and labels:
[1] = tested on: Pseudomonas aeruginosa; test: Antimicrobial activity against Pseudomonas aeruginosa ATCC 27853 after 18 to 20 hrs by macrobroth dilution method; format: functional
[2] = tested on: Staphylococcus aureus; test: Antimicrobial activity against Staphylococcus aureus ATCC 25923 after 18 to 20 hrs by macrobroth dilution method; format: functional
[3] = tested on: Escherichia coli; test: Antimicrobial activity against Escherichia coli ATCC 25922 after 18 to 20 hrs by macrobroth dilution method; format: functional
[4] = Toxicity against human RBCs assessed as hemolysis at 100 uM after 1 hr by spectrophotometry; format: cell-based, Erythrocyte; settings: red blood cells (RBCs), read-out: Activity
[5] = tested on: Escherichia coli; test: Induction of outer membrane permeabilization in Escherichia coli ML-35p at 1 uM measured every 2 mins by beta-lactamase/nitrocefin hydrolysis assay; format: functional, organism-based
[6] = tested on: Escherichia coli; test: Induction of inner membrane permeabilization in Escherichia coli ML-35p at 10 to 100 uM measured every 2 mins by beta-galactosidase/ONPG hydrolysis assay; format: functional, organism-based
[7] = tested on: Escherichia coli; test: Induction of outer membrane permeabilization in Escherichia coli ML-35p at 10 to 20 uM measured every 2 mins by beta-lactamase/nitrocefin hydrolysis assay; format: functional, organism-based
[8] = tested on: Escherichia coli; test: Induction of outer membrane permeabilization in Escherichia coli ML-35p at 40 to 100 uM measured every 2 mins by beta-lactamase/nitrocefin hydrolysis assay; format: functional, organism-based
[9] = tested on: Escherichia coli; test: Induction of inner membrane permeabilization in Escherichia coli ML-35p at 1 uM measured every 2 mins by beta-galactosidase/ONPG hydrolysis assay; format: functional, organism-based

Molecule | MIC90 [1] | MIC90 [2] | MIC90 [3] | hemolysis at 1 h, 100 µM [4] | Activity [5] | Activity [6] | Activity [7] | Activity [8] | Activity [9]
CC1(C)S[C@@H]2[C@H](NC(=O)Cc3ccccc3)C(=O)N2[C@H]1C(=O)O [PENICILLIN G] | > 100 µM | 0.125 µM (≈ 0.0418 µg/mL) | > 100 µM |  |  |  |  |  | 
GENTAMICIN | 0.35 µM | 0.1 µM | 1 µM |  |  |  |  |  | 
H-EQHSSGKSDV-OH | > 100 µM | > 100 µM | > 100 µM |  |  |  |  |  | 
H-GKSDVRRWRSRY-OH | > 100 µM | > 100 µM | > 100 µM |  |  |  |  |  | 
H-KKSYVRRWRS-OH | > 100 µM | > 100 µM | > 100 µM | -0.6% |  |  |  |  | 
H-LWGTRSGIQP-OH | > 100 µM | > 100 µM | > 100 µM |  |  |  |  |  | 
H-QLKVDLWGTR-OH | > 100 µM | > 100 µM | > 100 µM |  |  |  |  |  | 
H-QLKVDLWGTRSGIQPEQHSSGKSDVRRWRSRY-NH2 [Ixosin-B-amide] | > 100 µM | > 100 µM | 80 µM |  |  |  |  |  | 
H-SGIQPEQHSS-OH | > 100 µM | > 100 µM | > 100 µM |  |  |  |  |  | 
H-WKSDVRRWRSRY-OH | > 100 µM | > 100 µM | 64 µM | 0.3% |  |  |  |  | 
H-WKSYVRRW-OH | > 100 µM | 100 µM | 64 µM | 2% |  |  |  |  | 
H-WKSYVRRWR-OH | > 100 µM | 64 µM | 64 µM | 1.1% |  |  |  |  | 
H-WKSYVRRWRS-OH | > 100 µM | > 100 µM | 64 µM | -0.4% |  |  |  |  | 
H-WKSYVRRWRSR-OH | > 100 µM | 32 µM | 16 µM | -1.2% |  |  |  |  | 
H-WKSYVRRWRSRY-OH | 100 µM | 32 µM | 16 µM | 1.5% |  |  |  |  | 
H-WWSYVRRWRSR-OH | > 100 µM | 8 µM | 16 µM | 3.4% | inactive | Active | Active | Active | inactive
